In patent US10874745B2, “Antimicrobial peptides and methods of treating gram-negative pathogens: polar and non-polar face analogs” (priority 2017, dated 2020):
Converted amounts (≈) assume the structure as drawn. “And” between values parts separate entries of the source, which are not always exact repeats. Equal values may be shown once.

How the values were obtained:
[1] = tested on: A. baumannii strains resistant to Polymyxin B and Colistin; assay type: cell-based; settings: geometric mean, 7 A. baumannii strains resistant to polymyxin B and colistin
[2] = tested on: human red blood cells; assay: Hemolytic activity; assay type: cell-based; settings: for HC50: 50% hemolysis of human red blood cells after 18 hours at 37° C.; for Hemolytic activity HC30: 18 h
Experimental: (§1) Hemoglobin release was determined spectrophotometrically at 570 nm. […] […] […] With the peptides used in this study the inventors used the HC30/MIC ratio value to calculate the therapeutic index.

[3] = Hemolytic activity; assay type: cell-based, human; settings: 1% human erythrocytes (red blood cells), pH 7.4; 50% hemolysis of human red blood cells after 18 hours at 37° C.; read-out: HC50
Experimental: as §1

[4] = tested on: clinical isolates of Pseudomonas aeruginosa; assay type: cell-based; settings: geometric mean, 6 clinical isolates of P. aeruginosa
Experimental: (§2) Measurement of Antimicrobial Activity (MIC): The minimal inhibitory concentration (MIC) is defined as the lowest peptide concentration that inhibited bacterial growth. MICs were measured by a standard microtiter dilution method in Mueller Hinton (MH) medium. Briefly, cells were grown overnight at 37° C. in MH broth and were diluted in the same medium. […] The plates were incubated at 37° C. for 24 h, and the MICs were determined.

[5] = tested on: A. baumannii clinical isolates; assay: MIC, microtiter dilution in Mueller Hinton medium; assay type: cell-based; settings: geometric mean, 7 clinical isolates of A. baumannii
Excerpt: Gram-Negative Bacterial Strains used in this Study: All the A. baumannii strains used in this study were 1) obtained from the collection of Dr. Anthony A. Campagnari at the University of Buffalo and originally isolated from different patients and organs/tissues (strain 649, blood; strain 689, groin; strain 759, gluteus; strain 884, axilla; strain 985, pleural fluid); 2) were purchased from the American Type Culture Collection (ATCC, Manassas, Va., USA) (strain ATCC 17978, fatal meningitis; and strain ATCC 19606, urine); 3) obtained from MERCK (M89941, M89949, M89951, M89952, M89953, M89955 and M89963). These seven A. baumannii strains were resistant to polymyxin B and polymyxin E (Colistin).
as §2

[6] = tested on: A. baumannii strain 649; assay type: cell-based, Acinetobacter baumannii
Excerpt: A critical component to the systemic use of AMPs to treat bacterial infections is the extent of AMP binding to serum proteins. In addition, since only the unbound AMP is available to interact with the therapeutic target, the extent of serum binding can have significant effects on efficacy. […] This assay estimates the in vivo bioavailability of the AMPs. […] An increase in MIC in serum is attributed to inhibition of antimicrobial activity due to serum protein binding.

Structure (SMILES)	MICGM [1] [µM]	HC50 [2] [µM]	HC50 at 18 h [3]	MICGM [4] [µM]	MICGM [5] [µM]	Hemolytic activity HC30 [2] [µM]	MIC, 25% human serum [6] [µM]	MIC, No serum [6] [µM]
CC(=O)N[C@H](C)C(=O)N[C@H](CC(C)C)C(=O)N[C@H](CCCCN)C(=O)N[C@H](CCCCN)C(=O)N[C@H](CC(C)C)C(=O)N[C@H](CC(C)C)C(=O)N[C@H](CCCCN)C(=O)N[C@@H](C(=O)N[C@H](CC(C)C)C(=O)N[C@H](CO)C(=O)N[C@H](CCCCN)C(=O)N[C@H](C)C(=O)N[C@H](CCCN)C(=O)N[C@H](C)C(=O)N[C@H](C)C(=O)N[C@H](CCCN)C(=O)N[C@H](CC(C)C)C(=O)N[C@H](CCCCN)C(=O)N[C@@H](C(=O)N[C@H](CC(C)C)C(=O)N[C@H](CC(C)C)C(=O)N[C@H](CCCCN)C(=O)N[C@H](C)C(=O)N[C@H](CC(C)C)C(=O)N[C@H](CO)C(=O)N[C@H](CCCCN)C(N)=O)[C@H](C)O)[C@H](C)O [D41(Orn13/Orn16)]	0.6	34.0	34 µM and 96 µg/mL	1.0	0.8			
CC(=O)N[C@H](C)C(=O)N[C@H](CC(C)C)C(=O)N[C@H](CCCCN)C(=O)N[C@H](CO)C(=O)N[C@H](CC(C)C)C(=O)N[C@H](CC(C)C)C(=O)N[C@H](CCCCN)C(=O)N[C@@H](C(=O)N[C@H](CC(C)C)C(=O)N[C@H](CO)C(=O)N[C@H](CCCCN)C(=O)N[C@H](C)C(=O)N[C@H](C)C(=O)N[C@H](C)C(=O)N[C@H](C)C(=O)N[C@H](C)C(=O)N[C@H](CC(C)C)C(=O)N[C@H](CCCCN)C(=O)N[C@@H](C(=O)N[C@H](CC(C)C)C(=O)N[C@H](CC(C)C)C(=O)N[C@H](CCCCN)C(=O)N[C@H](C)C(=O)N[C@H](CC(C)C)C(=O)N[C@H](CO)C(=O)N[C@H](CCCCN)C(N)=O)[C@H](C)O)[C@H](C)O [Peptide D37]						2.6	>92.8	2.9 (≈ 7.81 µg/mL)
CC(=O)N[C@H](C)C(=O)N[C@H](CC(C)C)C(=O)N[C@H](CCCCN)C(=O)N[C@H](CO)C(=O)N[C@H](CC(C)C)C(=O)N[C@H](CC(C)C)C(=O)N[C@H](CCCCN)C(=O)N[C@@H](C(=O)N[C@H](CC(C)C)C(=O)N[C@H](CO)C(=O)N[C@H](CCCCN)C(=O)N[C@H](C)C(=O)N[C@H](CCCCN)C(=O)N[C@H](C)C(=O)N[C@H](C)C(=O)N[C@H](CCCCN)C(=O)N[C@H](CC(C)C)C(=O)N[C@H](CCCCN)C(=O)N[C@@H](C(=O)N[C@H](CC(C)C)C(=O)N[C@H](CC(C)C)C(=O)N[C@H](CCCCN)C(=O)N[C@H](C)C(=O)N[C@H](CC(C)C)C(=O)N[C@H](CO)C(=O)N[C@H](CCCCN)C(N)=O)[C@H](C)O)[C@H](C)O [Peptide D33]						89	0.7 (≈ 1.97 µg/mL)	0.1 (≈ 0.281 µg/mL)
CC(=O)N[C@H](C)C(=O)N[C@H](CC(C)C)C(=O)N[C@H](CCCCN)C(=O)N[C@H](CCCCN)C(=O)N[C@H](CC(C)C)C(=O)N[C@H](CC(C)C)C(=O)N[C@H](CCCCN)C(=O)N[C@@H](C(=O)N[C@H](CC(C)C)C(=O)N[C@H](CO)C(=O)N[C@H](CCCCN)C(=O)N[C@H](C)C(=O)N[C@H](CN)C(=O)N[C@H](C)C(=O)N[C@H](C)C(=O)N[C@H](CN)C(=O)N[C@H](CC(C)C)C(=O)N[C@H](CCCCN)C(=O)N[C@@H](C(=O)N[C@H](CC(C)C)C(=O)N[C@H](CC(C)C)C(=O)N[C@H](CCCCN)C(=O)N[C@H](C)C(=O)N[C@H](CC(C)C)C(=O)N[C@H](CO)C(=O)N[C@H](CCCCN)C(N)=O)[C@H](C)O)[C@H](C)O [D41(Dpr13/Dpr16)]	0.7	22.6	22.6 µM and 62.5 µg/mL	1.3	0.6			
CC(=O)N[C@H](C)C(=O)N[C@H](CC(C)C)C(=O)N[C@H](CCCCN)C(=O)N[C@H](CO)C(=O)N[C@H](CC(C)C)C(=O)N[C@H](CC(C)C)C(=O)N[C@H](CCCCN)C(=O)N[C@@H](C(=O)N[C@H](CC(C)C)C(=O)N[C@H](CO)C(=O)N[C@H](C)C(=O)N[C@H](C)C(=O)N[C@H](CCCCN)C(=O)N[C@H](CCCCN)C(=O)N[C@H](CCCCN)C(=O)N[C@H](CCCCN)C(=O)N[C@H](CC(C)C)C(=O)N[C@H](C)C(=O)N[C@@H](C(=O)N[C@H](CC(C)C)C(=O)N[C@H](CC(C)C)C(=O)N[C@H](CCCCN)C(=O)N[C@H](C)C(=O)N[C@H](CC(C)C)C(=O)N[C@H](CO)C(=O)N[C@H](CCCCN)C(N)=O)[C@H](C)O)[C@H](C)O [Peptide D34]						126	1.4 (≈ 3.93 µg/mL)	0.2 (≈ 0.562 µg/mL)
CC(=O)N[C@H](C)C(=O)N[C@H](CC(C)C)C(=O)N[C@H](C)C(=O)N[C@H](CO)C(=O)N[C@H](CC(C)C)C(=O)N[C@H](CC(C)C)C(=O)N[C@H](CCCCN)C(=O)N[C@@H](C(=O)N[C@H](CC(C)C)C(=O)N[C@H](CO)C(=O)N[C@H](CCCCN)C(=O)N[C@H](C)C(=O)N[C@H](CCCCN)C(=O)N[C@H](CCCCN)C(=O)N[C@H](CCCCN)C(=O)N[C@H](CCCCN)C(=O)N[C@H](CC(C)C)C(=O)N[C@H](CCCCN)C(=O)N[C@@H](C(=O)N[C@H](CC(C)C)C(=O)N[C@H](CC(C)C)C(=O)N[C@H](CCCCN)C(=O)N[C@H](C)C(=O)N[C@H](CC(C)C)C(=O)N[C@H](CO)C(=O)N[C@H](C)C(N)=O)[C@H](C)O)[C@H](C)O [Peptide D36]						61	0.7 (≈ 1.97 µg/mL)	0.4 (≈ 1.12 µg/mL)
CC(=O)N[C@H](C)C(=O)N[C@H](CC(C)C)C(=O)N[C@H](CCCCN)C(=O)N[C@H](CO)C(=O)N[C@H](CC(C)C)C(=O)N[C@H](CC(C)C)C(=O)N[C@H](CCCCN)C(=O)N[C@@H](C(=O)N[C@H](CC(C)C)C(=O)N[C@H](CO)C(=O)N[C@H](C)C(=O)N[C@H](C)C(=O)N[C@H](C)C(=O)N[C@H](CCCCN)C(=O)N[C@H](CCCCN)C(=O)N[C@H](C)C(=O)N[C@H](CC(C)C)C(=O)N[C@H](C)C(=O)N[C@@H](C(=O)N[C@H](CC(C)C)C(=O)N[C@H](CC(C)C)C(=O)N[C@H](CCCCN)C(=O)N[C@H](C)C(=O)N[C@H](CC(C)C)C(=O)N[C@H](CO)C(=O)N[C@H](CCCCN)C(N)=O)[C@H](C)O)[C@H](C)O [Peptide D38]						2.8	>92.8	0.7 (≈ 1.89 µg/mL)
CC(=O)N[C@H](C)C(=O)N[C@H](CC(C)C)C(=O)N[C@H](C)C(=O)N[C@H](CO)C(=O)N[C@H](CC(C)C)C(=O)N[C@H](CC(C)C)C(=O)N[C@H](CCCCN)C(=O)N[C@@H](C(=O)N[C@H](CC(C)C)C(=O)N[C@H](CO)C(=O)N[C@H](CCCCN)C(=O)N[C@H](C)C(=O)N[C@H](C)C(=O)N[C@H](CCCCN)C(=O)N[C@H](CCCCN)C(=O)N[C@H](C)C(=O)N[C@H](CC(C)C)C(=O)N[C@H](CCCCN)C(=O)N[C@@H](C(=O)N[C@H](CC(C)C)C(=O)N[C@H](CC(C)C)C(=O)N[C@H](CCCCN)C(=O)N[C@H](C)C(=O)N[C@H](CC(C)C)C(=O)N[C@H](CO)C(=O)N[C@H](C)C(N)=O)[C@H](C)O)[C@H](C)O [Peptide D40]						2.8	>92.8	2.9 (≈ 7.81 µg/mL)
